From patent US20130052162A1, “BOOSTING IMMUNE DEFENSE BY UPREGULATING CCAAT/ENHANCER BINDING PROTEIN EPSILON” (CEDARS-SINAI MEDICAL CENTER, priority 2010, published 2013)
“And” between values parts separate entries of the source, which are not always exact repeats. Equal values may be shown once. “Also recorded” adds a separate entry of the source.

Tests used:
S. aureus [1] = assay: Effect of NAM on growth and viability of S. aureus; assay type: cell-based, Staphylococcus aureus; settings: 6 h
Description: The inventors assessed whether NAM, at the concentrations used in the study, adversely affect the growth and viability of S. aureus. PBS was chosen as an inert non-growth medium, and THB was chosen as a suitable growth medium for S. aureus. Seventy-five microliters of NAM (1 mM and 10 mM final concentrations; in either THB or PBS) or THB or PBS alone (respective controls) were placed in sterile 2 mL round-bottom Eppendorf tubes, and then inoculated with S. aureus (˜1×10^4 CFU/mL in 25 μl of PBS or THB) and immediately briefly vortexed. Triplicate reactions were incubated at 37° C. for 1 h, 3 h, and 6 h on a rotary shaker at which time ten-fold serial dilutions were plated on THIA for enumeration of CFU.
In a different assay, S. aureus (˜1×10^8 CFU/mL in THB) was incubated with or without 50 mM NAM. This concentration represents the equivalent molarity of NAM used in the in vivo experiments. Triplicate 1 mL reactions were incubated at 37° C. on a rotary shaker and at various time points (6 h, 12 h, and 24 h) ten-fold serial dilutions were plated on THA for enumeration of CFU. This assay was performed on two independent occasions using inocula generated from three separate bacterial cultures.

LF-promoter = assay: LF reporter gene (LAC-LUC) luciferase assay in U937 cells; assay type: cell-based, human; settings: 1 mM NAM, 16 h, vs PBS
Description: The inventors designed a −230 LF promoter reporter plasmid (LAC-LUC) including a C/EBP-binding site as previously described^15. For the reporter gene assay, 2×10^6 […] cells were transiently transfected either with 2 μg of the LAC-LUC luciferase reporter gene constructs or the empty-vector control (pGL3, Promega, Madison, Wis., USA), as well as 0.2 μg of Renilla luciferase (pRL-SV40). Transfections were performed using the nucleofection technique with the Amaxa-Kit (Invitrogen, Karlsruhe, Germany) according to the manufacturer's instructions. After 16 h of transfection, the cells were treated with NAM (1 mM) for an additional 16 h. The lysates were harvested and luciferase activity measured by the Dual-Luciferase reporter assay system (Promega, Madison, Wis., USA). For all transfection studies, luciferase activity was normalized using pRL-SV40 activity. Results represent the mean of three independent experiments performed in triplicate.

S. aureus [2] = assay: Murine systemic (i.p.) S. aureus infection; assay type: in vivo, mouse; settings: 250 mg/kg i.p. daily from 24 h before infection, 48 h p.i.
Description: Following euthanization of mice on the specified day, infected skin lesion tissue was aseptically excised, and thoroughly homogenized and mixed in 1 mL of PBS as previously shown^43. Ten-fold serial dilutions of the homogenates were plated on THA for CFU determination. The spleen and both kidneys were aseptically removed from each animal and processed in the same way. When required, the appropriate homogenized suspensions (skin lesions) were centrifuged at 15,000 g for 10 min and supernatants stored at −80° C. for subsequent analysis by ELISA.
Mice were systemically infected by intraperitoneal (i.p.) injection of 1×10^7 CFU/mL S. aureus for 48 h. Following euthanasia, the spleen and both kidneys were removed for CFU determination.

S. aureus [3] = assay: Murine peripheral whole blood killing assay; assay type: cell-based, mouse
CEBPE promoter region [4] = assay: ChIP: histone H3 acetylation at CEBPE promoter in BMMC; assay type: cell-based, mouse; settings: WT BMMC, 1 mM NAM, 12 h, vs untreated
Description: (§1) ChIP assay kit (Upstate Biotechnology, Lake Placid, N.Y.) was used, and chromatin was prepared for IP as instructed by the manufacturer. The sonicated chromatin was immunoprecipitated with either 5 μg of anti-acetylated histone H3 antibody or normal rabbit IgG antibody as negative control (Upstate Biotechnology). Immunoprecipitated DNA was subsequently analyzed by PCR using primers specific for the CEBPE promoter region; input chromatin was analyzed for β-actin mRNA as a positive control. The optimal reaction conditions for PCR were determined for each primer pair. Primers were denatured at 95° C. for 1 min and annealed at 60° C. for 1 min, followed by elongation at 72° C. for 1 min; each product was amplified 35 cycles. PCR products were analyzed by 2.5% agarose/ethidium bromide gel electrophoresis. […] The primers used for ChIP analysis were: human CEBPE 5′-GCTTTGGCCAAGCCCAGGGA-3′ (forward) (SEQ ID NO: 9), 5′-TGCTGGGCTCCACCTACCCC-3′ (reverse) (SEQ ID NO: 10); human β-actin: 5′-CTCCTCGGGAGCCACACGCA-3′ (forward) (SEQ ID NO: 1), 5′-TAGGGGAGCTGGCTGGGTGG-3′ (reverse) (SEQ ID NO: 12); murine CEBPE: 5′-TGAGGCTGCAGCTTGCCTGG-3′ (forward) (SEQ ID NO: 13), 5′-ACCAAGCTACCCCTGGCCCT-3′ (reverse) (SEQ ID NO: 14), murine β-actin: 5′-ACCTGTTACTTTGGGAGTGGCAAGC-3′ (forward) (SEQ ID NO: 15), 5′-GTCGTCCCAGTTGCTAACAATGCC-3′ (reverse) (SEQ ID NO: 16).

CEBPE promoter region [5] = assay: ChIP: histone H3 acetylation at CEBPE promoter in human PMNs from NAM-treated blood; assay type: cell-based; settings: blood treated with 1 mM NAM, 12 h
Description: as §1, with “16). […]” for “16).”

CEBPE promoter region [6] = assay: ChIP: histone H3 acetylation at CEBPE promoter in BMDM; assay type: cell-based, mouse; settings: WT BMDM, 1 mM NAM, 6-12 h, vs untreated, densitometry
Description: as §1

[7] = Ex vivo hematological study (CBC) of human donor blood; assay type: cell-based; settings: 1 mM NAM ex vivo
Description: Blood from human donors (no antibiotics within the prior 2 weeks, no immune-boosting supplements, and otherwise healthy) was collected in ETDA tubes. CBC was performed on each blood sample at time zero. Each blood sample was then treated ex vivo with NAM (1 mM) or PBS (control) for 24 h in 6-well non-treated plates at 37 C, 5% CO2 and 95%% humidity with gentle rocking. After 24 h of treatment, CBCs were performed on each blood sample. […] (Table 3)

[8] = t = 24 h, individual human donors #1-5

SMILES: NC(=O)c1cccnc1 [NAM, Nicotinamide]
- direct anti-staphylococcal activity (CFU vs control) (S. aureus [1]; 1 mM and 10 mM NAM in THB or PBS, 1 h, 3 h, no phagocytic cells): no direct anti-staphylococcal activity; also recorded: No differences
- direct anti-staphylococcal activity (CFU vs control) (S. aureus [1]; 50 mM NAM in THB, 12 h, 24 h): No difference in CFU
- increase in LF reporter gene activity (LF-promoter): 2.5 fold
- bacterial CFU recovered from spleens and kidneys vs PBS (S. aureus [2]; C/EBPε−/− mice): no impact
- lower S. aureus CFU in spleens and kidneys vs PBS (S. aureus [2]; WT mice): approximately 2 logic
- CFU recovered, NAM- vs PBS-treated blood (S. aureus [3]; C/EBPε−/− blood, 1 mM NAM 24 h, 1 h and 3 h of infection): no impact; also recorded: not statistically different
- CFU recovered, NAM- vs PBS-treated blood (S. aureus [3]; WT blood, 1 mM NAM 24 h, 1 h and 3 h of infection): Significantly less CFU
- enhanced killing of S. aureus vs PBS (S. aureus [3]; WT blood, 1 mM NAM pretreatment 24 h): more than 3 log10
- CFU recovered, NAM- vs PBS-treated blood (S. aureus [3]; WT blood, 1 mM NAM pretreatment for only 4 h): did not result in CFU differences
- increase in histone acetylation at the CEBPE promoter (CEBPE promoter region [4]): 3 fold
- increase in histone H3 acetylation at the CEBPE promoter (CEBPE promoter region [5]): 5 fold
- increase in histone H3 acetylation at the CEBPE promoter (CEBPE promoter region [6]): 5 fold
- CBCs, NAM- vs PBS-treated and untreated blood ([7]; 24 h): No differences in CBCs
- ABS MONOS [7, 8]: 0.6 1000/UL and 0.5 1000/UL and 0.2 1000/UL and 0.1 1000/UL (2×)
- ABS POLYS [7, 8]: 5.4 1000/UL and 2.9 1000/UL and 5.2 1000/UL and 4.2 1000/UL and 4.3 1000/UL
- MONOS [7, 8]: 7% and 9% and 4% and 2% (2×)
- POLYS [7, 8]: 61% and 51% and 76% and 63% and 70%
- WBC COUNT [7, 8]: 8.9 1000/UL and 5.6 1000/UL and 6.9 1000/UL and 6.7 1000/UL and 6.1 1000/UL
